Measured values from patent US7858613B2, “Substituted benzo-condensed cycloheptanone derivatives and their use for producing drugs” (Gruenenthal GmbH, priority 2005, dated 2010).

Columns and labels:
human CB2 receptor = molecular target: T1, human CB2 receptor (Homo sapiens, UniProt P34972); experiment: Affinity for cannabinoid receptor CB2, [3H]-CP 55,940 displacement on HEK-293EBNA membranes; conditions: 10 μM test substance; 0.33 nM [3H]-CP 55,940; percent inhibition of specific binding
T1 construct: expressed in transfected cells; host or cells: HEK-293EBNA cells (membranes)
T1 sequence (P34972 whole entry): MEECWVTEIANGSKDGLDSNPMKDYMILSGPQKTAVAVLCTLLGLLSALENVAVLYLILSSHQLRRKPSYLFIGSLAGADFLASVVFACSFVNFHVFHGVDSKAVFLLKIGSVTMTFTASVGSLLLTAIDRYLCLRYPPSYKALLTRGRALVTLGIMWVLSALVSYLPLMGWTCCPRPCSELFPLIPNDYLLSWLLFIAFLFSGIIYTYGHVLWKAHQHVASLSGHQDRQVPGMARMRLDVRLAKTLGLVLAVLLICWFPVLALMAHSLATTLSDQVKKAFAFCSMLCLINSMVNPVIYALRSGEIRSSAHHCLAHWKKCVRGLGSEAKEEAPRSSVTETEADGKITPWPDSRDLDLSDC
Text: VI. Determination of the Affinity for the Cannabinoid Receptor CB2 (CB2 Receptor):
To determine the affinity of the inventive compounds for the cannabinoid receptor, membranes from human recombinant HEK-293EBNA cells were used, which had been transfected stably with the human CB2 receptor. The radioligand used was tritium-labeled 5-(1,1-dimethylheptyl)-2-(5-hydroxypropyl)cyclohexyl)-1-alpha,2-beta,5-alpha)phenol ([3]H—CP 55,940 with 103.4 Ci/mmol, 1 mCi/ml). The determination was effected in a test buffer composed of 50 mM Tris-HCl, 2.5 mM EDTA, 5 mM MgCl2 and 1.0 mg/ml of fatty acid-free BSA. The test substances were each dissolved in DMSO.
The affinity of the inventive compounds for the CB2 receptor is determined by their ability to displace [3]H—CP 55,940 from CB2 receptors in membranes from HEK-293EBNA cells. To this end, in each case 8 μg of the membranes (20 μl of a solution from membranes in a concentration of 400 μg/ml) are incubated in wells on a microtiter plate with a 0.33 nM solution of ^[3]H-CP […] (120 Ci/mmol) in a total volume of test buffer of 200 μl at 30° C. for 90 minutes.
Subsequently, either the test substances or WIN 55212-2 to determine the unspecific binding, in each case dissolved in DMSO, are added to the wells so as to result in each case in a concentration of the corresponding substances of 10 μM.
Incubation at 30° C. is continued for a further 40 minutes. The binding reaction was ended by rapid filtration through GF/C filter paper which had been treated with 0.05% PEI using a Brandel cell harvester with 96 wells. The filters are washed nine times with 0.5 ml of ice-cooled washing buffer ([…] Tris-HCl, 5 mM MgCl2, 2.5 mM EDTA, 2% BSA, pH 7.4), air-dried and placed in scintillation fluid, and the radioactivity is determined with the aid of a scintillation counter.
The percentage displacement of the radioactive ligand ^[3]H-CP 55,940 from its binding to the CB2 receptor is reported as percent inhibition of the specific binding.

vanilloid receptor (VR1) = molecular target: T2, vanilloid receptor (VR1) (Homo sapiens, UniProt Q8NER1); experiment: Functional study on vanilloid receptor (VR1), FLIPR Ca2+ assay in VR1-transfected CHO K1 cells; format: cell-based; conditions: test substance 10 μM; CHO K1 cells transfected with VR1; suppression of Ca2+ current after 100 nM capsaicin; read-out: VR1 (human) (% inhibition compared to 10 μM CP)
T2 construct: expressed in transfected cells; host or cells: CHO K1 cells (ECACC)
T2 sequence (Q8NER1 whole entry): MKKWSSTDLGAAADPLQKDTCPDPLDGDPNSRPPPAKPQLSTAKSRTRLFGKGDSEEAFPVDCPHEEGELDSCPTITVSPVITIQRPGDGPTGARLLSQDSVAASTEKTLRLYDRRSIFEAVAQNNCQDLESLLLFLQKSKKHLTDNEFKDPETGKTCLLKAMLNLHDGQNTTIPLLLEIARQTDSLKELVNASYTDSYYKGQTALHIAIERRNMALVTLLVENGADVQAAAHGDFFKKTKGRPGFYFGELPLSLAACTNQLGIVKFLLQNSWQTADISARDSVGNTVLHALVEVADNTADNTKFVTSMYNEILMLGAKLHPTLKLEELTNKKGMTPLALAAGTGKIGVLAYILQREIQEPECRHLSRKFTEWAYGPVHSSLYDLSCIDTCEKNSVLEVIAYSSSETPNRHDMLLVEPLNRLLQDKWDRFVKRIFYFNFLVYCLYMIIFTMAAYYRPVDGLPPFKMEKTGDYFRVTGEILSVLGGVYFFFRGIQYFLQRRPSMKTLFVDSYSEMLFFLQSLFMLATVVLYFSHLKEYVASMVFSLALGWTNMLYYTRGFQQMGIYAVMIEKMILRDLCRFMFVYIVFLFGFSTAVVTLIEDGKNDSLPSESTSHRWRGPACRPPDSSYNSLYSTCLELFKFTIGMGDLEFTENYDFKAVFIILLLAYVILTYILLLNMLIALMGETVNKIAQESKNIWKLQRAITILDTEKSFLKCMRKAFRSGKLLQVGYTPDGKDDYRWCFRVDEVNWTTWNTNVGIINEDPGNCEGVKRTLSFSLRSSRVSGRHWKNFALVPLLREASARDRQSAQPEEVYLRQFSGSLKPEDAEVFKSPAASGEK
Text: II. Functional Studies on the Vanilloid Receptor (VR1)
The agonistic or antagonistic action of the substances to be tested on vanilloid receptor (VR1) can also be determined with the assay which follows. In this assay, the Ca^2+ current through the channel is quantified with the aid of a Ca^2+-sensitive dye (Fluo-4 type, Molecular Probes, Europe BV, Leiden, the Netherlands) in a fluorescent imaging plate reader (FLIPR, Molecular Devices, Sunnyvale, USA).
Chinese hamster ovary cells (CHO K1 cells, European Collection of Cell Cultures (ECACC) Great Britain) are transfected stably with the VR1 gene. For functional studies, these cells are plated out onto poly-D-lysine-coated black 96-well plates with a clear bottom (BD Biosciences, Heidelberg, Germany) in a density of 25 000 cells/well. The cells are incubated overnight at 37° C. and 5% CO2 in a culture medium (Ham's Nutrient Mixture F12, 10% by volume of FCS (fetal calf serum), 18 μg/ml of L-proline). The next day, the cells are incubated with Fluo-4 (Fluo-4 2 μM, Pluronic F127 0.01% by volume, Molecular Probes in HBSS (Hank's buffered saline solution), Gibco Invitrogen GmbH, Karlsruhe, Germany) at 37° C. for 30 minutes. Subsequently, the plates are washed 3 times with HBSS buffer and, after a further incubation of 15 minutes at room temperature, used for Ca^2+ measurement in FLIPR. The Ca^2+-dependent fluorescence is measured before and after addition of the substances to be studied (wavelength λex=488 nm, λem=540 nm). The quantification is effected by measuring the highest fluorescence intensity (FC, fluorescence counts) over the time.
The FLIPR protocol consists of 2 substance additions. First, the substances to be tested (10 μM) are pipetted onto the cells and the Ca^2+ current is compared with the control (capsaicin 10 μM) (% activation based on the Ca^2+ signal after addition of 10 μM capsaicin). After incubation for 5 minutes, 100 nM capsaicin is applied and the current of Ca^2+ is likewise determined.
Desensitizing agonists and antagonists led to a suppression of the Ca^2+ current. % inhibition is calculated compared to the maximum achievable inhibition with 10 μM capsazepine.

Row | inhibition at 10 µM (human CB2 receptor) [%] | inhibition at 10 µM (vanilloid receptor (VR1)) [%] | Compound
1 | 63.4 |  | O=C(Nc1ccc(F)cc1F)OCC1(COC(=O)Nc2ccc(F)cc2F)CCOc2ccccc2C1=O [Example Compound 16, 2,4-Difluorophenylcarbamic acid 4-(2,4-difluorophenylcarbamoyloxymethyl)-5-oxo-2,3,4,5-tetrahydrobenzo[b]oxepin-4-ylmethyl ester]
2 | 36.2 | 53.8 | O=C(Nc1ccc(Br)cc1)OCC1CCSc2ccccc2C1=O (stereo not shown) [Example Compound 5, (4-Bromophenyl)carbamic acid 5-oxo-2,3,4,5-tetrahydrobenzo[b]thiepin-4-ylmethyl ester]
3 | 42.2 |  | CCCCCNC(=O)OCC1CCSc2ccccc2C1=O (stereo not shown) [Example Compound 1, Pentylcarbamic acid 5-oxo-2,3,4,5-tetrahydrobenzo[b]thiepin-4-ylmethyl ester]
4 | 61.8 |  | CCCCCNC(=O)OCC1(COC(=O)NCCCCC)CCSc2ccccc2C1=O [Example Compound 14, pentylcarbamic acid 4-(pentylcarbamoyloxymethyl)-5-oxo-2,3,4,5-tetrahydrobenzo[b]thiepin-4-ylmethyl ester]
5 | 53.6 | 26.7 | O=C(NC1CCCCC1)OCC1(CO)CCSc2ccccc2C1=O (stereo not shown) [Example Compound 6, Cyclohexylcarbamic acid 4-hydroxymethyl-5-oxo-2,3,4,5-tetrahydro-benzo[b]thiepin-4-ylmethyl ester]
